For 43 sequences, target mRNA inhibition results are on record in the OligoGym collection.

The target in this data set is IRF4. As to conditions: ASO.

Several values for one entry are separate records, joined by “and”; a condition that tells them apart may be missing. Equal entries are not always repeated. After the bases stand the sugars from the 5' end (letter, count) and the backbone: PS all phosphorothioate, else s phosphorothioate and o phosphodiester by linkage. Methylation of C is not given here. e = 2'-O-(2-methoxyethyl) (MOE); k = constrained ethyl (cEt); d = 2'-deoxy (DNA)

As for “CTTGATAAAGGCTGAA (sugars k2 d9 e3 k2, PS)”, where the note is “MM.1R, 1 µM”, the target mRNA inhibition amounted to 10%.
Still for that read-out and setting: then “CTTGATAAAGGCTGAA (sugars k3 d9 k3 e1, PS)”, with 36%; and “CTTGATAAAGGCTGAA (sugars kkdddddddddekeke, PS)”, with 19%.
The same measure, in the same setting: then “CTTGATAAAGGCTGAA (sugars kkkddddddddkekek, PS)”, with 12%.
Take CTTGCCAGTGGTGGCC (sugars k4 d8 k4, PS): the target mRNA inhibition (SK-MEL-28, 4 µM) is -9%.
As to CTTGCCGCTGTCGATC (sugars k3 d10 k3, PS), the target mRNA inhibition (SK-MEL-28, 4 µM) came out at 25%.
Turning to CTTGGAGAAGTCCCGT (sugars k3 d10 k3, PS), where the note is “SK-MEL-28, 4 µM”, the target mRNA inhibition was found to be 39%.
As for CTTGTTCAAAGCGCAC (sugars k3 d10 k3, PS), the target mRNA inhibition (SK-MEL-28, 4 µM) turned out to be 32%.
As for CTTTAGCCCATGCTCC (sugars k3 d10 k3, PS), the target mRNA inhibition (SK-MEL-28, 4 µM) amounted to 20%.
For CTTTATGCGAAGAATT (sugars k3 d10 k3, PS), the target mRNA inhibition (SK-MEL-28, 4 µM) stood at 30%.
Still for that read-out and setting: then CTTTCACTAAAGTCAA (sugars k3 d10 k3, PS), with 51%; and CTTTTTTGGCTCCCTC (sugars k3 d10 k3, PS), with 36%.
Take GAAAACAGCCGCCGGC (sugars k3 d10 k3, PS): the target mRNA inhibition (SK-MEL-28, 4 µM) turned out to be 26%.
Consider GAAAATCTGGATGAGC (sugars k3 d10 k3, PS), for which the target mRNA inhibition is 7% (MM.1R, 0.0625 µM); 11% (MM.1R, 0.074 µM); -1% (MM.1R, 0.222 µM); 8% (MM.1R, 0.25 µM); -26% (MM.1R, 0.666 µM); 22% (MM.1R, 1 µM). Also, the target mRNA inhibition is, setting by setting: (MM.1R, 4 µM) 59%; (SK-MEL-28, 4 µM) 64%.
Regarding GAAACCGCTGGCAGGT (sugars k3 d10 k3, PS), the target mRNA inhibition (SK-MEL-28, 4 µM) turned out to be 50%.
Consider GAAAGGAGGTAGTGGC (sugars k3 d10 k3, PS), for which the target mRNA inhibition (SK-MEL-28, 4 µM) is 23%.
Turning to GAAATACGACAACTTT (sugars k3 d10 k3, PS), for the setting “SK-MEL-28, 4 µM”, the target mRNA inhibition came to 22%.
Same read-out and setting: the result for GAACAATCCTGTACAC (sugars k3 d10 k3, PS) reads -5%; that for GAACAATCCTGTACAC (sugars k4 d8 k4, PS), 0%.
Consider GAACACACCACTATTC (sugars k3 d10 k3, PS), for which, where the note is “MM.1R, 1 µM”, the target mRNA inhibition is -20%.
Consider GAACAGATAGTTAAGT (sugars k3 d10 k3, PS), for which the target mRNA inhibition (SK-MEL-28, 4 µM) was determined as 17%.
Consider GAACAGGAAGCCACTA (sugars k3 d10 k3, PS), for which, for the setting “SK-MEL-28, 4 µM”, the target mRNA inhibition stood at 23%.
Same read-out and setting: then GAACAGGACCTGGTCC (sugars k3 d10 k3, PS), with 25%; and GAACATCTCAGATACA (sugars k3 d10 k3, PS), with 42%; and GAACCTGCTGGGCTGG (sugars k4 d8 k4, PS), with 13%.
Still for that read-out and setting: the result for GAACGAGGTAAATCTT (sugars k3 d10 k3, PS) reads 56%.
Still for that read-out and setting: the result for GAAGAATTTTAGCATC (sugars k3 d10 k3, PS) reads 56%; that for GAAGCACTGGCATTGA (sugars k3 d10 k3, PS), 55%.
Turning to “GAAGCATTTTATCATC (sugars k3 d9 k3 e1, PS)”, the target mRNA inhibition (MM.1R, 1 µM) is 1%.
On the same count and under the same terms, then “GAAGCATTTTATCATC (sugars kdddddddddkekeke, PS)”, with 4%; and “GAAGCATTTTATCATC (sugars kkdddddddddkekek, PS)”, with -20%.
For the sequence “GAAGCATTTTATCATC (sugars kkkdddddddddkeke, PS)”, the target mRNA inhibition (MM.1R, 1 µM) was 8%.
With “GAAGCATTTTATCATC (sugars kkkddddddddkekek, PS)”, the target mRNA inhibition (MM.1R, 1 µM) was -5%.
The same measure, in the same setting: the result for GAAGCTTAGTTATCTG (sugars k3 d10 k3, PS) reads 45% and 39%.
For “GAAGTTTACACTGGAT (sugars k2 d9 e3 k2, PS)”, the target mRNA inhibition (MM.1R, 1 µM) came out at 28%.
Consider “GAAGTTTACACTGGAT (sugars kkdddddddddkekek, PS)”, for which the target mRNA inhibition by setting is: (MM.1R, 0.074 µM) 6%; (MM.1R, 0.222 µM) 22%; (MM.1R, 0.666 µM) 49%; (MM.1R, 1 µM) 55%; (MM.1R, 2 µM) 75%.
On to GAATGCATAACACGGT (sugars k3 d10 k3, PS), for which, where the note is “SK-MEL-28, 4 µM”, the target mRNA inhibition turned out to be 61%.
On the same count and under the same terms, then GAATGCTCTCCATCAA (sugars k3 d10 k3, PS), with 45%.
With GAATGGCGAGTTGGCA (sugars k3 d10 k3, PS), the target mRNA inhibition (MM.1R, 1 µM) is 39% and 40%.
As for GAATGGCGCATAGGTC (sugars k3 d10 k3, PS), the target mRNA inhibition (MM.1R, 1 µM) was 26%.
Same read-out and setting: the result for GAATGGCGGATAGATC (sugars k3 d10 k3, PS) reads -3%.
GAATTAGGTGCTTAAT (sugars k3 d10 k3, PS): the target mRNA inhibition (SK-MEL-28, 4 µM) worked out at 59%.
With GACAAATCTTCTGCCT (sugars k3 d10 k3, PS), the target mRNA inhibition (SK-MEL-28, 4 µM) came out at 26%.
